# Data reported in patent US20020002171A1, “Materials and methods for killing nematodes and nematode eggs” (priority 2000, published 2002).
# System: Caenorhabditis elegans
# Assay: C. elegans L1 nematicidal dose response in 96-well plates, 5 day visual score (Example 2; same procedure for Example 7, Table 3)
# Format: in vivo
# Set-up: key to 5 Day Visual Score V1 / 5 Day Visual Score V2 / 5 Day Visual Score V3 / 5 Day Visual Score V4 / 5 Day Visual Score V6 / 5 Day Visual Score V5 / Initial HTS Run Visual Score / Follow-up HTS Run Visual Score: Dead: only stiff L1s (no movement); Dead (L4): worms are dead, but at a later larval stage; majority of worms are L1 (based on size) worms move when plate is tapped; majority of worms are L2 (based on size); majority of worms are L3 (based on size); majority of worms are L4 (based on size); AD: majority of worms are adult; #AD: 5 adult worms or less; B!: sterile (0-25 progeny); B: low broodsize (25-100 progeny); ˜B: moderate broodsize (100-250 progeny); <: reduced broodsize (250-500 progeny); OK: no effect (˜1000+ progeny)
# Details: Follow-up HTS run
# How it was run: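 Scoring was by eye at 100× on day 5, after incubation at 20° C, of 20 C. elegans L1s per well fed 1% E. coli HB101 in NGM. Compound columns V1–V6 spanned 70 μM to 0.3 μM in 3-fold steps, with 1.4% DMSO in the top well and as control.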
SMILES,Follow-up HTS Run % Run [%],Follow-up HTS Run Visual Score,Follow-up HTS Run mOD [mOD]
CCCCCCCCCCCCCCCCCCN(C)c1nc(NCc2ccc(C(F)(F)F)cc2)ns1 [compound 306],102,L1,165
C=CCN(CC=C)c1nc(NCCCCCCCCCC)ns1 [compound 282],122,Dead,197
FC(F)(F)c1cccc(N2CCN(c3nc(NCc4ccccc4)ns3)CC2)c1 [compound 266],124,–,200
CCCCC(CC)CN(CC(CC)CCCC)c1nc(NCc2ccc(C(F)(F)F)cc2)ns1 (centres unmarked) [compound 307],110,B! (sterile (0-25 progeny)),177
Cc1cccc(C)c1N1CCN(c2nsc(N(CC(C)C)CC(C)C)n2)CC1 [compound 231],65,2AD/B,105
C=CCN(CC=C)c1nc(NC2CCCCCCCCCCC2)ns1 [compound 334],88,–,141
COc1ccc(CCN(C)c2nc(NC3CCCCCCCCCCC3)ns2)cc1OC [compound 337],68,Dead,110
CC1CCN(c2nc(NCc3ccccc3)ns2)CC1 [compound 261],96,–,155
CN(Cc1ccccc1)c1nc(NCc2c(F)cccc2F)ns1 [compound 301],127,B! (sterile (0-25 progeny)),204

# Same assay, conditions: Initial HTS run
SMILES,Initial HTS Run % Run [%],Initial HTS Run mOD [mOD],Initial HTS Run Visual Score
CCCCCCCCCCCCCCCCCCN(C)c1nc(NCc2ccc(C(F)(F)F)cc2)ns1 [compound 306],107,118,–
C=CCN(CC=C)c1nc(NCCCCCCCCCC)ns1 [compound 282],135,148,Dead
FC(F)(F)c1cccc(N2CCN(c3nc(NCc4ccccc4)ns3)CC2)c1 [compound 266],110,121,–
CCCCC(CC)CN(CC(CC)CCCC)c1nc(NCc2ccc(C(F)(F)F)cc2)ns1 (centres unmarked) [compound 307],100,110,L4/AD/B
Cc1cccc(C)c1N1CCN(c2nsc(N(CC(C)C)CC(C)C)n2)CC1 [compound 231],119,131,2AD/B
C=CCN(CC=C)c1nc(NC2CCCCCCCCCCC2)ns1 [compound 334],98,108,Dead
COc1ccc(CCN(C)c2nc(NC3CCCCCCCCCCC3)ns2)cc1OC [compound 337],90,99,Dead
CC1CCN(c2nc(NCc3ccccc3)ns2)CC1 [compound 261],96,106,L3/L4/AD/B!
CN(Cc1ccccc1)c1nc(NCc2c(F)cccc2F)ns1 [compound 301],111,122,B!-Few Eggs

# Same assay, conditions: dose response, dilution V1, 5 day
row,SMILES,5 Day Visual Score V1
1,C=CCN(CC=C)c1nc(NC2CCCCCCCCCCC2)ns1 [compound 334],Dead
2,COc1ccc(CCN(C)c2nc(NC3CCCCCCCCCCC3)ns2)cc1OC [compound 337],Dead

# Same assay, conditions: dose response, dilution V1, day 5
row,SMILES,5 Day Visual Score V1
1,CCCCCCCCCCCCCCCCCCN(C)c1nc(NCc2ccc(C(F)(F)F)cc2)ns1 [compound 306],L1
2,C=CCN(CC=C)c1nc(NCCCCCCCCCC)ns1 [compound 282],Dead
3,FC(F)(F)c1cccc(N2CCN(c3nc(NCc4ccccc4)ns3)CC2)c1 [compound 266],Dead
4,CCCCC(CC)CN(CC(CC)CCCC)c1nc(NCc2ccc(C(F)(F)F)cc2)ns1 (centres unmarked) [compound 307],Dead
5,Cc1cccc(C)c1N1CCN(c2nsc(N(CC(C)C)CC(C)C)n2)CC1 [compound 231],Dead
6,CC1CCN(c2nc(NCc3ccccc3)ns2)CC1 [compound 261],Dead

# Same assay, conditions: dose response, dilution V2, 5 day
row,SMILES,5 Day Visual Score V2
1,C=CCN(CC=C)c1nc(NC2CCCCCCCCCCC2)ns1 [compound 334],Dead
2,COc1ccc(CCN(C)c2nc(NC3CCCCCCCCCCC3)ns2)cc1OC [compound 337],Dead

# Same assay, conditions: dose response, dilution V2, day 5
row,SMILES,5 Day Visual Score V2
1,CCCCCCCCCCCCCCCCCCN(C)c1nc(NCc2ccc(C(F)(F)F)cc2)ns1 [compound 306],L1
2,C=CCN(CC=C)c1nc(NCCCCCCCCCC)ns1 [compound 282],Dead
3,Cc1cccc(C)c1N1CCN(c2nsc(N(CC(C)C)CC(C)C)n2)CC1 [compound 231],Dead
4,CN(Cc1ccccc1)c1nc(NCc2c(F)cccc2F)ns1 [compound 301],< (reduced broodsize (250-500 progeny))

# Same assay, conditions: dose response, dilution V3, 5 day
row,SMILES,5 Day Visual Score V3
1,COc1ccc(CCN(C)c2nc(NC3CCCCCCCCCCC3)ns2)cc1OC [compound 337],Dead

# Same assay, conditions: dose response, dilution V3, day 5
row,SMILES,5 Day Visual Score V3
1,CCCCC(CC)CN(CC(CC)CCCC)c1nc(NCc2ccc(C(F)(F)F)cc2)ns1 (centres unmarked) [compound 307],OK (no effect (˜1000+ progeny))
2,Cc1cccc(C)c1N1CCN(c2nsc(N(CC(C)C)CC(C)C)n2)CC1 [compound 231],< (reduced broodsize (250-500 progeny))
3,CC1CCN(c2nc(NCc3ccccc3)ns2)CC1 [compound 261],OK (no effect (˜1000+ progeny))
4,CN(Cc1ccccc1)c1nc(NCc2c(F)cccc2F)ns1 [compound 301],OK (no effect (˜1000+ progeny))

# Same assay, conditions: dose response, dilution V4, 5 day
row,SMILES,5 Day Visual Score V4
1,C=CCN(CC=C)c1nc(NC2CCCCCCCCCCC2)ns1 [compound 334],OK (no effect (˜1000+ progeny))
2,COc1ccc(CCN(C)c2nc(NC3CCCCCCCCCCC3)ns2)cc1OC [compound 337],B (low broodsize (25-100 progeny))

# Same assay, conditions: dose response, dilution V4, day 5
row,SMILES,5 Day Visual Score V4
1,CCCCCCCCCCCCCCCCCCN(C)c1nc(NCc2ccc(C(F)(F)F)cc2)ns1 [compound 306],OK (no effect (˜1000+ progeny))
2,C=CCN(CC=C)c1nc(NCCCCCCCCCC)ns1 [compound 282],OK (no effect (˜1000+ progeny))
3,FC(F)(F)c1cccc(N2CCN(c3nc(NCc4ccccc4)ns3)CC2)c1 [compound 266],OK (no effect (˜1000+ progeny))
4,CCCCC(CC)CN(CC(CC)CCCC)c1nc(NCc2ccc(C(F)(F)F)cc2)ns1 (centres unmarked) [compound 307],OK (no effect (˜1000+ progeny))
5,Cc1cccc(C)c1N1CCN(c2nsc(N(CC(C)C)CC(C)C)n2)CC1 [compound 231],OK (no effect (˜1000+ progeny))
6,CC1CCN(c2nc(NCc3ccccc3)ns2)CC1 [compound 261],OK (no effect (˜1000+ progeny))
7,CN(Cc1ccccc1)c1nc(NCc2c(F)cccc2F)ns1 [compound 301],OK (no effect (˜1000+ progeny))

# Same assay, conditions: dose response, dilution V5, 5 day
row,SMILES,5 Day Visual Score V5
1,C=CCN(CC=C)c1nc(NC2CCCCCCCCCCC2)ns1 [compound 334],OK (no effect (˜1000+ progeny))
2,COc1ccc(CCN(C)c2nc(NC3CCCCCCCCCCC3)ns2)cc1OC [compound 337],OK (no effect (˜1000+ progeny))

# Same assay, conditions: dose response, dilution V5, day 5
row,SMILES,5 Day Visual Score V5
1,CCCCCCCCCCCCCCCCCCN(C)c1nc(NCc2ccc(C(F)(F)F)cc2)ns1 [compound 306],OK (no effect (˜1000+ progeny))
2,C=CCN(CC=C)c1nc(NCCCCCCCCCC)ns1 [compound 282],OK (no effect (˜1000+ progeny))
3,FC(F)(F)c1cccc(N2CCN(c3nc(NCc4ccccc4)ns3)CC2)c1 [compound 266],OK (no effect (˜1000+ progeny))
4,CCCCC(CC)CN(CC(CC)CCCC)c1nc(NCc2ccc(C(F)(F)F)cc2)ns1 (centres unmarked) [compound 307],OK (no effect (˜1000+ progeny))
5,Cc1cccc(C)c1N1CCN(c2nsc(N(CC(C)C)CC(C)C)n2)CC1 [compound 231],OK (no effect (˜1000+ progeny))
6,CC1CCN(c2nc(NCc3ccccc3)ns2)CC1 [compound 261],OK (no effect (˜1000+ progeny))
7,CN(Cc1ccccc1)c1nc(NCc2c(F)cccc2F)ns1 [compound 301],OK (no effect (˜1000+ progeny))

# Same assay, conditions: dose response, dilution V6, 5 day
row,SMILES,5 Day Visual Score V6
1,C=CCN(CC=C)c1nc(NC2CCCCCCCCCCC2)ns1 [compound 334],OK (no effect (˜1000+ progeny))
2,COc1ccc(CCN(C)c2nc(NC3CCCCCCCCCCC3)ns2)cc1OC [compound 337],OK (no effect (˜1000+ progeny))

# Same assay, conditions: dose response, dilution V6, day 5
row,SMILES,5 Day Visual Score V6
1,CCCCCCCCCCCCCCCCCCN(C)c1nc(NCc2ccc(C(F)(F)F)cc2)ns1 [compound 306],OK (no effect (˜1000+ progeny))
2,C=CCN(CC=C)c1nc(NCCCCCCCCCC)ns1 [compound 282],OK (no effect (˜1000+ progeny))
3,FC(F)(F)c1cccc(N2CCN(c3nc(NCc4ccccc4)ns3)CC2)c1 [compound 266],OK (no effect (˜1000+ progeny))
4,CCCCC(CC)CN(CC(CC)CCCC)c1nc(NCc2ccc(C(F)(F)F)cc2)ns1 (centres unmarked) [compound 307],OK (no effect (˜1000+ progeny))
5,Cc1cccc(C)c1N1CCN(c2nsc(N(CC(C)C)CC(C)C)n2)CC1 [compound 231],OK (no effect (˜1000+ progeny))
6,CC1CCN(c2nc(NCc3ccccc3)ns2)CC1 [compound 261],OK (no effect (˜1000+ progeny))
7,CN(Cc1ccccc1)c1nc(NCc2c(F)cccc2F)ns1 [compound 301],OK (no effect (˜1000+ progeny))
